Assay results as given in US20090053168A1, “TREATMENTS OF B-CELL PROLIFERATIVE DISORDERS” (priority 2007, published 2009).
Several values for one entry are separate records, joined by “and”; a condition that tells them apart may be missing. Equal entries are not always repeated. Where two headings read alike, the source gives them in different places.

Tests used:
KSM-12-PE cells = experiment: Anti-proliferation assay (ATPLite, 72 h), KSM-12-PE; type: cell-based; conditions: in combination with CGS-21680; KSM-12-PE
EJM cells = experiment: Anti-proliferation assay (ATPLite, 72 h), EJM; type: cell-based; conditions: in combination with CGS-21680
MM.1S cells [1] = experiment: Anti-proliferation assay (ATPLite, 72 h), MM.1S; conditions: for activity and synergy in antiproliferation assays: RPMI-8226, H929, MM.1S and MM.1R MM cell lines
ANBL-6 cells = experiment: Anti-proliferation assay (ATPLite, 72 h), ANBL-6; type: cell-based; conditions: in combination with CGS-21680
SU-DHL6 DLBCL cells = experiment: Anti-proliferation assay (ATPLite, 72 h), SU-DHL6; type: cell-based; conditions: in combination with CGS-21680
MOLP-8 cells = experiment: Anti-proliferation assay (ATPLite, 72 h), MOLP-8; type: cell-based; conditions: in combination with CGS-21680
Karpas 422 DLBCL cells = experiment: Anti-proliferation assay (ATPLite, 72 h), Karpas 422; type: cell-based; conditions: in combination with CGS-21680
OPM2 cells = experiment: Anti-proliferation assay (ATPLite, 72 h), OPM2; type: cell-based, human
OCI-ly10 DLBCL cells = experiment: Anti-proliferation assay (ATPLite, 72 h), OCI-ly10; type: cell-based; conditions: in combination with CGS-21680
[2] = system: Farage (non-Hodgkin's B cell lymphoma) cells; experiment: Anti-proliferation assay (ATPLite, 72 h), Farage; type: cell-based; conditions: x dexamethasone
RPMI-8226 cells = experiment: Anti-proliferation assay (ATPLite, 72 h), RPMI-8226; type: cell-based
MM.1S cells [3] = system: MM.1S cells
H929 cells = experiment: Anti-proliferation assay (ATPLite, 72 h), H929; type: cell-based
[4] = system: GA-10 (Burkitt's lymphoma) cells; experiment: Anti-proliferation assay (ATPLite, 72 h), GA-10; type: cell-based; conditions: x dexamethasone
[5] = system: mantle cell lymphoma cell line JVM-13; experiment: Anti-proliferation assay (ATPLite, 72 h), JVM-13; type: cell-based, human
Protocol: (§1) All of the cell lines were cultured in RPMI-1640 media supplemented with 10% FBS except OCI Ly10 cells (IMDM media supplemented with 20% human serum). The ANBL-6 cell line culture media also contained 10 ng/ml IL-6. MM.1S, MM.1R, SU-DHL6, Karpas 422, and OCI ly10 cells were provided by the Dana Farber Cancer Institute. ANBL-6 cells were provided by Bob Orlowsli (M.D. Anderson Cancer Research Center). H929, RPMI-8226, GA-10, Farage, Mino, JVM-13, Pfeiffer, Toledo, and Kusami-1 cells were from ATCC (Cat #'s CCL-155, CRL-9068, CRL-2392 CRL-2630, CRL-3000, CRL-3003, CRL-2632, CRL-2631, and CRL-2724 respectively). MOLP-8, OPM2, EJM, and KSM-12-PE cells were from DSMZ.
(§2) Compounds were prepared in DMSO at 1000× the highest desired concentration. Master plates were generated consisting of serially diluted compounds in 2- or 3-fold dilutions in 384-well format. For single agent dose response curves, the master plates consisted of 9 individual compounds at 12 concentrations in 2- or 3-fold dilutions. For combination matrices, master plates consisted of individual compounds at 6 or 9 concentrations at 2- or 3-fold dilutions.
(§3) The average untreated well value (avg. untreated wells) is the arithmetic mean of 40 wells from the same assay plate treated with vehicle alone. Negative inhibition values result from local variations in treated wells as compared to untreated wells.
(§4) The uncertainty of each fitted parameter was estimated from the range over which the change in reduced chi-squared was less than one, or less than minimum reduced chi-squared if that minimum exceeded one, to allow for underestimated σI errors.
(§5) Single agent curve data were used to define a dilution series for each compound to, be used for combination screening in a 6×6 matrix format. […] For compounds with no detectable single agent activity, a dilution factor of 4 was used, starting from the highest achievable concentration.
(§6) The Loewe additivity model was used to quantify combination effects. Combinations were ranked initially by Additivity Excess Volume, which is defined as ADD Volume=ΣCX, CY(Idata−ILoewe). where ILoewe(CX,CY) is the inhibition that satisfies (CX/ECX)+(CY/ECY)=1, and ECX,Y are the effective concentrations at ILoewe for the single agent curves. A “Synergy Score” was also used, where the Synergy Score S=log fX log fY ΣIdata (Idata−ILoewe), summed over all non-single-agent concentration pairs, and where log fX,Y is the natural logarithm of the dilution factors used for each single agent.

[6] = system: mantle cell lymphoma cell line Mino; experiment: Anti-proliferation assay (ATPLite, 72 h), Mino; type: cell-based, human
Protocol: as §1, §2, §3, §4, §5, §6

[7] = read-out: IC50 (+IL-6), MM.1S cells grown in presence of 10 ng/ml IL-6, 2-fold dilutions
[8] = read-out: IC50 (no IL-6), MM.1S cells grown in absence of IL-6, 2-fold dilutions
[9] = Homo sapiens, MM1.S, read-out: percent inhibition of cell proliferation

O=C(Nc1c(Cl)cncc1Cl)c1ccc(OC(F)F)c(OCC2CC2)c1 [roflumilast]
synergy score (KSM-12-PE cells): 0.27
synergy score (EJM cells): 1.06
synergy score (MM.1S cells [1]; in combination with CGS-21680, MM.1S): 2.54
synergy score (ANBL-6 cells): 3.73
synergy score (SU-DHL6 DLBCL cells): 0.93
synergy score (MOLP-8 cells): 3.44
synergy score (Karpas 422 DLBCL cells): 3.38
synergy score (OPM2 cells; in combination with CGS-21680, OPM-8): 0.29
synergy score (OCI-ly10 DLBCL cells): 3.32

Cn1c2ccccc2c2c3c(c4c5ccccc5n(CCC#N)c4c21)CNC3=O [Go 6976]
synergy score (SU-DHL6 DLBCL cells): 3.69
synergy score (Karpas 422 DLBCL cells): 2.91
synergy score (OCI-ly10 DLBCL cells): 1.61

OC[C@H]1O[C@H](n2cnc3c(NC4CC5CCC4C5)ncnc32)[C@H](O)[C@@H]1O (stereo partly drawn) [(S)-ENBA, S-N^6-(2-endo-norbornyl)adenosine]
synergy score [2]: 1.37
Synergy score with dexamethasone, MM.1S (MM.1S cells [1]): 7.30
percent inhibition of cell proliferation (MM.1S cells [1]; (S)-ENBA 0.173 μM alone): 14%
percent inhibition of cell proliferation (MM.1S cells [1]; (S)-ENBA 0.519 μM alone): 14%
percent inhibition of cell proliferation (MM.1S cells [1]; (S)-ENBA 1.56 μM alone): 50%
percent inhibition of cell proliferation (MM.1S cells [1]; (S)-ENBA 4.67 μM alone): 49%
percent inhibition of cell proliferation (MM.1S cells [1]; (S)-ENBA 14 μM alone): 62%
activity and synergy in antiproliferation assays (MM.1S cells [1]): active and synergistic
IC50 (MM.1S cells [1]; [7]): 1530 nM
IC50 (MM.1S cells [1]; [8]): 2270 nM
Synergy score with dexamethasone, RPMI-8226 (RPMI-8226 cells): 8.64
Percent inhibition of cell growth by (S)-ENBA (MM.1S cells [3]; (s)-ENBA 0.17 μM, 78 nM SCH58261): 4.5%
Percent inhibition of cell growth by (S)-ENBA (MM.1S cells [3]; (s)-ENBA 0.17 μM, 175 nM MRS1754): 9.3%
Percent inhibition of cell growth by (S)-ENBA (MM.1S cells [3]; (s)-ENBA 0.17 μM, 178 nM DPCPX): 2.4%
Percent inhibition of cell growth by (S)-ENBA (MM.1S cells [3]; (s)-ENBA 0.17 μM, 183 nM MRS1523): 10%
Percent inhibition of cell growth by (S)-ENBA (MM.1S cells [3]; (s)-ENBA 0.17 μM, no antagonist): 6%
Percent inhibition of cell growth by (S)-ENBA (MM.1S cells [3]; (s)-ENBA 0.52 μM, 78 nM SCH58261): 6%
Percent inhibition of cell growth by (S)-ENBA (MM.1S cells [3]; (s)-ENBA 0.52 μM, 175 nM MRS1754): 10%
Percent inhibition of cell growth by (S)-ENBA (MM.1S cells [3]; (s)-ENBA 0.52 μM, 178 nM DPCPX): 18%
Percent inhibition of cell growth by (S)-ENBA (MM.1S cells [3]; (s)-ENBA 0.52 μM, 183 nM MRS1523): 14%
Percent inhibition of cell growth by (S)-ENBA (MM.1S cells [3]; (s)-ENBA 0.52 μM, no antagonist): 19%
Percent inhibition of cell growth by (S)-ENBA (MM.1S cells [3]; (s)-ENBA 1.6 μM, 78 nM SCH58261): 14%
Percent inhibition of cell growth by (S)-ENBA (MM.1S cells [3]; (s)-ENBA 1.6 μM, 175 nM MRS1754): 50%
Percent inhibition of cell growth by (S)-ENBA (MM.1S cells [3]; (s)-ENBA 1.6 μM, 178 nM DPCPX): 37%
Percent inhibition of cell growth by (S)-ENBA (MM.1S cells [3]; (s)-ENBA 1.6 μM, 183 nM MRS1523): 36%
Percent inhibition of cell growth by (S)-ENBA (MM.1S cells [3]; (s)-ENBA 1.6 μM, no antagonist): 41%
Percent inhibition of cell growth by (S)-ENBA (MM.1S cells [3]; (s)-ENBA 4.7 μM, 78 nM SCH58261): 12%
Percent inhibition of cell growth by (S)-ENBA (MM.1S cells [3]; (s)-ENBA 4.7 μM, 175 nM MRS1754): 47%
Percent inhibition of cell growth by (S)-ENBA (MM.1S cells [3]; (s)-ENBA 4.7 μM, 178 nM DPCPX): 77%
Percent inhibition of cell growth by (S)-ENBA (MM.1S cells [3]; (s)-ENBA 4.7 μM, 183 nM MRS1523): 52%
Percent inhibition of cell growth by (S)-ENBA (MM.1S cells [3]; (s)-ENBA 4.7 μM, no antagonist): 52%
Percent inhibition of cell growth by (S)-ENBA (MM.1S cells [3]; (s)-ENBA 14 μM, 78 nM SCH58261): 45%
Percent inhibition of cell growth by (S)-ENBA (MM.1S cells [3]; (s)-ENBA 14 μM, 175 nM MRS1754): 71%
Percent inhibition of cell growth by (S)-ENBA (MM.1S cells [3]; (s)-ENBA 14 μM, 178 nM DPCPX): 89%
Percent inhibition of cell growth by (S)-ENBA (MM.1S cells [3]; (s)-ENBA 14 μM, 183 nM MRS1523): 65%
Percent inhibition of cell growth by (S)-ENBA (MM.1S cells [3]; (s)-ENBA 14 μM, no antagonist): 68%
Synergy score with dexamethasone, H929 (H929 cells): 7.82
synergy score [4]: 1.05

NCCNC(=O)Cc1ccc(NC(=O)Cc2ccc(Nc3ncnc4c3ncn4[C@@H]3O[C@H](CO)[C@@H](O)[C@H]3O)cc2)cc1 [ADAC, N-(4-(2-((4-(2-((2-aminoethyl)amino)-2-oxoethyl)phenyl)amino)-2-oxoethyl)phenyl)-Adenosine]
synergy score [2]: 2.28
IC50 (MM.1S cells [1]; Homo sapiens, MM1.S, read-out: IC50 (no IL-6)): 623 nM
inhibition at 1.17 µM (MM.1S cells [1]; [9]): 80%
inhibition at 3.51 µM (MM.1S cells [1]; [9]): 75%
inhibition at 10.5 µM (MM.1S cells [1]; [9]): 82%
inhibition at 31.6 µM (MM.1S cells [1]; [9]): 82%
activity and synergy in antiproliferation assays (MM.1S cells [1]): active and synergistic
synergy score [4]: 2.43

CCCCC#Cc1nc(N)c2ncn([C@@H]3O[C@H](C(=O)NCC)[C@@H](O)[C@H]3O)c2n1 [HE-NECA, hexynyladenosine-5′-N-ethylcarboxamide]
synergy score [2]: 3.6
Synergy score with dexamethasone, MM.1S (MM.1S cells [1]): 8.94
percent inhibition of cell proliferation (MM.1S cells [1]): 46% and 31%
percent inhibition of cell proliferation (MM.1S cells [1]; HE-NECA 0.181 nM alone): −0.91%
percent inhibition of cell proliferation (MM.1S cells [1]; HE-NECA 0.363 nM alone): 9.2%
percent inhibition of cell proliferation (MM.1S cells [1]; HE-NECA 0.725 nM alone): 11%
percent inhibition of cell proliferation (MM.1S cells [1]; HE-NECA 2.9 nM alone): 35%
percent inhibition of cell proliferation (MM.1S cells [1]; HE-NECA 5.8 nM alone): 42%
percent inhibition of cell proliferation (MM.1S cells [1]; HE-NECA 23.2 nM alone): 51%
activity and synergy in antiproliferation assays (MM.1S cells [1]): active and synergistic
IC50 (MM.1S cells [1]; [7]): 0.88 nM
IC50 (MM.1S cells [1]; [8]): 6.5 nM
Synergy score with dexamethasone, RPMI-8226 (RPMI-8226 cells): 17.7
Synergy score with dexamethasone, H929 (H929 cells): 7.62
percent inhibition of cell proliferation ([5]; HE-NECA 2.5 nM alone): −0.9%
percent inhibition of cell proliferation ([5]; HE-NECA 5 nM alone): −1.5%
percent inhibition of cell proliferation ([5]; HE-NECA 10 nM alone): 2.1%
percent inhibition of cell proliferation ([5]; HE-NECA 20 nM alone): −9.7%
synergy score [4]: 1.64
percent inhibition of cell proliferation ([6]; HE-NECA 2.5 nM alone): 7.9% and 4.1%
percent inhibition of cell proliferation ([6]; HE-NECA 5 nM alone): 12%
percent inhibition of cell proliferation ([6]; HE-NECA 10 nM alone): 10% and 4.7%
percent inhibition of cell proliferation (OPM2 cells; HE-NECA 2.5 nM alone): 1%
percent inhibition of cell proliferation (OPM2 cells; HE-NECA 5 nM alone): 2.6%
percent inhibition of cell proliferation (OPM2 cells; HE-NECA 10 nM alone): 0.4%
percent inhibition of cell proliferation (OPM2 cells; HE-NECA 20 nM alone): 4.8%
